From patent publication EP0907648B1, “QUINOLONE CARBOXYLIC ACIDS SUBSTITUTED BY 7-(3-VINYL-1,4-PIPERAZINE-1-YL)” (BAYER AG, priority 1996, dated 1998)
Converted amounts (≈) assume the structure as drawn. Counter-ions that a name gives are not always drawn. Like-named read-outs stand apart in the source and are kept apart here.

Assays:
M. bovirhinis PG 43 = assay: MIC (MHK) against mycoplasmas, microscopic reading; assay type: cell-based; conditions: incubation 5 to 7 days, read-out: MHK-Werte gegen Mycoplasmen
M. iowae 695 = assay: MIC (MHK) against mycoplasmas, microscopic reading; assay type: cell-based; conditions: incubation 5 to 7 days, read-out: MHK-Werte gegen Mycoplasmen
B. bronchiseptica = assay: MIC (MHK), agar serial dilution on Iso-Sensitest agar; assay type: cell-based; conditions: for MIC: Bordetella bronchiseptica, 20 h, B. bronchiseptica B 9601, read-out: MHK-Werte
[1] = test system: E.-coli-Stammes 6200 Serovar 078; assay: In vivo antibacterial efficacy in E. coli infected chicks (mortality); design: species or system Hühner-Küken; conditions: Escherichia coli; chicks infected intrathoracally, oral dose immediately after infection, mortality 48 h after infection
From the text: Die antibakterielle Wirksamkeit der erfindungsgemäßen Verbindung in-vivo wurde folgendermaßen bestimmt. Zwei bis […] (Lohmann-Hybriden, Fa. Lohmann, Cuxhaven) wurden mit 5 x 10^6 KBE/ml des E.-coli-Stammes 6200 Serovar 078 (Prof. Hinz, Hannover) intrathorakal infiziert. Unmittelbar nach der Infektion erhielten jeweils Gruppen von 10 bis 20 Küken den Wirkstoff oral appliziert. Ausgetestet wurden 6 Verdünnungen einer geometrischen Verdünnungsreihe. Die Auswertung erfolgte durch […] 48 Stunden nach der Infektion. Die Wirksamkeit der betreffenden Verbindung wird als ED90 in mg/kg angegeben.

M. bovis "Donetta" = assay: microbe, parasite or virus in culture; assay type: cell-based; conditions: read-out: MHK-Werte gegen Mycoplasmen
M. gallisepticum PG 31 = assay: MIC (MHK) against mycoplasmas, microscopic reading; assay type: cell-based; conditions: Mycoplasmoides gallisepticum, PG31, incubation 5 to 7 days, read-out: MHK-Werte gegen Mycoplasmen
Staph. spp. = assay: MIC (MHK), agar serial dilution on Iso-Sensitest agar; assay type: cell-based; conditions: for MIC: 20 h, read-out: MHK-Werte
Pseudomonas spp. = assay: as above; assay type: cell-based; conditions: 20 h; Pseudomonas spp. P 9510; read-out: MHK-Werte
S. suis = assay: as above; assay type: cell-based; conditions: Streptococcus suis, 20 h, read-out: MHK-Werte
M. agalactiae PG 2 = assay: MIC (MHK) against mycoplasmas, microscopic reading; assay type: cell-based; conditions: Mycoplasmopsis agalactiae, PG2, incubation 5 to 7 days, read-out: MHK-Werte gegen Mycoplasmen
S. agalactiae = assay: MIC (MHK), agar serial dilution on Iso-Sensitest agar; assay type: cell-based
Bordetella = assay: as above; assay type: cell-based; conditions: Bordetella 9213 GE; for MIC: 20 h, read-out: MHK-Werte
Salmonella spp. = assay: as above; assay type: cell-based; conditions: for MIC: 20 h, Salmonella spp. S 9656, read-out: MHK-Werte; for MHK-Werte: Salmonella spp. S 9657
From the text: (§1) Die minimalen Hemmkonzentrationen (MHK) der erfindungsgemäßen Verbindungen wurden per Reihenverdünnungsverfahren auf Iso-Sensitest Agar (Oxoid) bestimmt. Für jede Prüfsubstanz wurde eine Reihe von Agarplatten hergestellt, die bei jeweils doppelter Verdünnung abfallende Konzentrationen des Wirkstoffs enthielten. Die Agarplatten wurden mit einem Multipoint-Inokulator (Denley) beimpft. Zum Beimpfen wurden Übernachtkulturen der Erreger verwandt, die zuvor so verdünnt wurden, daß jeder Impfpunkt ca. 10^4 koloniebildende Partikel enthielt. Die beimpften Agarplatten wurden bei 37°C bebrütet, und das Keimwachstum wurde nach ca. 20 Stunden abgelesen. Der MHK-Wert (µg/ml) gibt die niedrigste Wirkstoffkonzentration an, bei der mit bloßem Auge kein Wachstum zu erkennen war. Die Erfassung der MHK-Werte für Mycoplasmen erfolgte mikroskopisch nach einer Inkubationszeit von 5 bis 7 Tagen.

E. coli = assay: as above; assay type: cell-based; conditions: for MIC: Escherichia coli, 20 h, read-out: MHK-Werte
From the text: as §1

Structure (SMILES)	MIC (M. bovirhinis PG 43) [µg/mL]	MIC (M. iowae 695) [µg/mL]	MHK-Werte (B. bronchiseptica; B. bronchiseptica B 9610)	MHK-Werte (B. bronchiseptica; B. bronchiseptica B 9613)	MHK-Werte (B. bronchiseptica; B. bronchiseptica B 9618)	MIC (B. bronchiseptica) [µg/mL]	ED90 [1] [mg/kg]	MIC (M. gallisepticum PG 31) [µg/mL]	MIC (Staph. spp.; Staph. spp. 2706) [µg/mL]	MIC (Staph. spp.; Staph. spp. 3781 GE) [µg/mL]	MIC (Staph. spp.; Staph. spp. B 5520 TGD) [µg/mL]	MIC (Staph. spp.; Staph. spp. G 600 LH) [µg/mL]	MIC (M. agalactiae PG 2) [µg/mL]	MIC (Bordetella) [µg/mL]	MIC (Salmonella spp.) [µg/mL]	MHK-Werte (Salmonella spp.)	MIC (E. coli; E. coli 21 Bui) [µg/mL]	MIC (E. coli; E. coli 3614 GE) [µg/mL]	MIC (E. coli; E. coli 9430 LH) [µg/mL]	MIC (E. coli; E. coli G 293 LH) [µg/mL]	other results
C=CC1CN(c2c(F)cc3c(=O)c(C(=O)O)cn(C4CC4)c3c2Cl)CCN1 (centres unmarked) [Bsp. 1, 8-Chlor-1-cyclopropyl-6-fluor-1,4-dihydro-4-oxo-7-(3-vinyl-1,4-piperazin-1-yl)-3-chinolincarbonsäure]	0.06 (≈ 0.153 µM)	0.03 (≈ 0.0766 µM)	0,25 µl/ml	0,25 µl/ml	0,25 µl/ml	0.25 (≈ 0.638 µM)	1.25	0.03 (≈ 0.0766 µM)	0.06 (≈ 0.153 µM)	1 (≈ 2.55 µM)	1 (≈ 2.55 µM)	1 (≈ 2.55 µM)	0.06 (≈ 0.153 µM)	8 (≈ 20.4 µM)	0.5 (≈ 1.28 µM)	0,5 µl/ml	8 (≈ 20.4 µM)	4 (≈ 10.2 µM)	16 (≈ 40.8 µM)	8 (≈ 20.4 µM)	MIC (M. bovis "Donetta"): 0.06 µg/mL (≈ 0.153 µM); MIC (Pseudomonas spp.): 0.5 µg/mL (≈ 1.28 µM); MIC (S. suis; S. suis Scc 9588): 0.06 µg/mL (≈ 0.153 µM); MIC (S. suis; S. suis Scc 9591): 0.03 µg/mL (≈ 0.0766 µM); MIC (S. suis; S. suis Scc 9592): 0.25 µg/mL (≈ 0.638 µM); MIC (S. suis; S. suis Scc 9595): 0.03 µg/mL (≈ 0.0766 µM); MIC (S. suis; S. suis Scc 9603): 0.03 µg/mL (≈ 0.0766 µM); MHK-Werte (S. agalactiae; S. agalactiae Scc 9514): 0,5 µl/ml; MHK-Werte (S. agalactiae; S. agalactiae Scc 9515): 0,5 µl/ml; MHK-Werte (S. agalactiae; S. agalactiae Scc 9520): 0,5 µl/ml; MHK-Werte (S. agalactiae; S. agalactiae Scc 9524): 0,5 µl/ml; MIC (S. agalactiae; Streptococcus agalactiae, 20 h, S. agalactiae Scc 9513, read-out: MHK-Werte): 0.5 µg/mL (≈ 1.28 µM); MIC (E. coli; E. coli Ec 9675): 1 µg/mL (≈ 2.55 µM)
C=CC1CN(c2c(F)cc3c(=O)c(C(=O)O)cn(C4CC4)c3c2Cl)CCN1 (centres unmarked) [Bsp. 2, 8-Chlor-1-cyclopropyl-6-fluor-1,4-dihydro-4-oxo-7-(3-vinyl-1,4-piperazin-1-yl)-3-chinolincarbonsäure-Hydrochlorid]																					MHK-Werte (Staph. spp.; Staph. spp. 3781 GE): 1 µl/ml; MHK-Werte (Bordetella): 8 µl/ml; MHK-Werte (E. coli; E. coli 21 Bui): 4 µl/ml; MHK-Werte (E. coli; E. coli 3614 GE): 4 µl/ml; MHK-Werte (E. coli; E. coli 9430 LH): 16 µl/ml; MHK-Werte (E. coli; E. coli G 293 LH): 4 µl/ml
C=CC1CN(c2c(F)cc3c(=O)c(C(=O)O)cn(C4CC4)c3c2Cl)CCN1/C=C/C(=O)OCC (centres unmarked) [Bsp. 3, 8-Chlor-1-cyclopropyl-7-[4-(2-ethoxycarbonyl-vinyl)-3-vinyl-1,4-piperazin-1-yl]-6-fluor-1,4-dihydro-4-oxo-3-chinolincarbonsäure]									0.25 (≈ 0.51 µM)	2 (≈ 4.08 µM)	2 (≈ 4.08 µM)	2 (≈ 4.08 µM)		16 (≈ 32.7 µM)			8 (≈ 16.3 µM)	8 (≈ 16.3 µM)	32 (≈ 65.3 µM)	16 (≈ 32.7 µM)	
C=CC1CN(c2c(F)c(N)c3c(=O)c(C(=O)O)cn(C4CC4)c3c2F)CCN1 (centres unmarked) [Bsp. 4, 5-Amino-1-cyclopropyl-6,8-difluor-1,4-dihydro-4-oxo-7-(3-vinyl-1,4-piperazin-1-yl)-chinolincarbonsäure]	0.25 (≈ 0.64 µM)	0.06 (≈ 0.154 µM)	0,25 µl/ml	0,25 µl/ml	0,25 µl/ml	0.25 (≈ 0.64 µM)		0.03 (≈ 0.0768 µM)		4 (≈ 10.2 µM)	4 (≈ 10.2 µM)	4 (≈ 10.2 µM)	0.03 (≈ 0.0768 µM)		0.5 (≈ 1.28 µM)	0,5 µl/ml	16 (≈ 41 µM)	16 (≈ 41 µM)	64 (≈ 164 µM)	32 (≈ 82 µM)	MIC (Staph. spp.; Staph. spp. ST 9640): 0.06 µg/mL (≈ 0.154 µM); MIC (E. coli; E. coli Ec 9675): 0.5 µg/mL (≈ 1.28 µM)
C=CC1CN(c2cc3c(cc2F)c(=O)c(C(=O)O)cn3C2CC2)CCN1 (centres unmarked) [Bsp. 102 aus EP-A 230 053, 1-Cyclopropyl-6-fluor-1,4-dihydro-4-oxo-7-(3-vinyl-1,4-piperazin-1-yl)-3-chinoloncarbonsäure, reference compound]							5 to 10														
